Measured values: patent US20250345378A1 (priority 2022, published 2025)
Read-outs that look alike come from different tables or passages of the source.

Legend:
[1] = tested on: 304 E. coli clinical isolates; type: cell-based, Escherichia coli; conditions: 304-isolate panel
Experimental: (§1) Phage cocktail CK618 was tested in combination with and alongside antibiotics against two isolate panels. The first assay used a panel of 88 contemporaneous urinary tract infection (UTI) isolates from North America, Europe, Latin America, and Asia. […] The second assay used a panel made up of a 300-strain clinical isolate panel (Table 14) with an additional 4 strains of interest. […] Four of the same SOC antibiotics tested against the 88-isolate panel were tested against this panel. The non-SOC antibiotics were not included due to their limited use in clinical settings, and nitrofurantoin was not included due to the low probability of resistance to this drug.
(§2) For both isolate panels, antibiotic concentrations tested were determined by using Clinical and Laboratory Standards Institute (CLSI) or European Committee on Antimicrobial Susceptibility Testing (EUCAST) breakpoints at concentrations that kill susceptible isolates but allow intermediate or resistant isolates to grow in the standard AST microdilution assay (Table 17).
(§3) The composition of the proposed Phase 2 CRISPR-enhanced bacteriophage (CRISPR-phage, hereafter termed ‘crPhage’) cocktail (CK618) has been updated from the CK570 to include six bacteriophages as compared to three bacteriophages in CK570. Bacteriophage cocktail CK618, was prepared such that all bacteriophages had equivalent titers in the final cocktail. The cocktail was then mixed with bacteria to obtain final titers of 1×10^6 plaque-forming unit (PFU)/mL/phage for the cocktail and 1×10^5 colony-forming unit (CFU)/mL for the bacteria, resulting in a multiplicity of infection (MOI) of 10 for each bacteriophage in a sample. Briefly, 5 μl of each sample (CK618 alone, CK618 and antibiotics, antibiotics alone, or medium alone) was added to 5 μl of optical density (OD)-normalized bacterial isolate and 40 μl LB medium. Reactions were incubated at 37° C. with shaking and OD measurements were taken each hour for 20 hours.
(§4) Host range percentage is the percent of isolates that responded to treatment of antibiotics or CK618. In the case of the 88-isolate panel, results were analyzed on the complete panel as well as the subset of classified as multidrug-resistant (MDR) (n=21) and beta-lactam-resistant (n=31).
(§5) The first assay used a panel of 88 contemporaneous isolates. Twenty-one of those strains are classified as MDR, with resistance to 3 or more antibiotic classes. […] The second assay used the panel made up of a 300-strain clinical isolate panel with an additional 4 strains of interest.
(§6) Antibiotic concentrations tested were determined by using CLSI or EUCAST breakpoints at concentrations that kill susceptible strains but allow intermediate or resistant strains to grow in the standard AST microdilution assay (Table 27). LBP-EC01 v.2 was combined with bacteria resulting in a MO of 10 for each bacteriophage in a sample. In the case of the 88-isolate panel, results were analyzed on the complete panel as well as the subset of isolates classified as multidrug-resistant (MDR) (n=21) and beta-lactam-resistant (n=31).

[2] = tested on: 88 urinary tract infection E. coli isolates; type: cell-based, Escherichia coli; conditions: for Host Range % on MDR Subset (n = 21), Combination: Antibiotic + LBP-EC01 v.2 / Host Range % on all Strains (n = 88), Combination: Antibiotic + LBP-EC01 v.2 / Host Range % on Beta-lactam-Resistant Subset (n = 31), Combination: Antibiotic + LBP-EC01 v.2: antibiotic combined with LBP-EC01 v.2; for Host Range % on all Strains (n = 88), Combination: Antibiotic + CK618 v.2: antibiotic at breakpoint concentration plus cocktail 1 × 10^6 PFU/ml per bacteriophage
Experimental: as §1, §2, §3, §4, §5, §6

[3] = 88-isolate panel, MDR subset, single agent
[4] = 88-isolate panel, all strains, single agent
[5] = 88-isolate panel, beta-lactam-resistant subset
[6] = 88-isolate panel, beta-lactam-resistant subset, single agent
[7] = antibiotic at breakpoint concentration (Table 17), cocktail 1 × 10^6 PFU/ml per bacteriophage, MOI 10

What does the source list for `CC1=C(C(=O)O)N2C(=O)[C@@H](NC(=O)[C@H](N)c3ccccc3)[C@H]2SC1` [Cephalexin]?
Host range % on MDR subset (n = 93), Combination: Antibiotic + LBP-CK618 [1]: 79.6%; Host range % on MDR subset (n = 93), Single agent treatment [1]: 24.7%; Host range % on beta-lactam-resistant subset (n = 91), Combination: Antibiotic + LBP-CK618 [1]: 79.1%; Host range % on beta-lactam-resistant subset (n = 91), Single agent treatment [1]: 8.8%; Host Range % on MDR Subset (n = 93), Combination Antibiotic + LBP-EC01 v.2 ([1]; MDR subset, antibiotic combined with LBP-EC01 v.2): 79.6%; Host Range % on all Strains (n = 304), Single agent treatment ([1]; all strains, single agent): 57.6%; Host Range % on Beta-lactam-Resistant Subset (n = 91), Combination: Antibiotic + LBP-EC01 v.2 ([1]; beta-lactam-resistant subset, antibiotic combined with LBP-EC01 v.2): 79.1%; Host range % on beta-lactam-resistant subset (n = 91), Single agent treatment ([1]; beta-lactam-resistant subset, single agent): 8.8%; Host Range % on Beta-lactam-Resistant Subset (n = 31), Combination: Antibiotic + CK618 v.2 ([2]; 88-isolate panel): 81.7%; Host Range % on Beta-lactam-Resistant Subset (n = 31), Single agent treatment ([2]; 88-isolate panel): 11.8%; Host Range % on MDR Subset (n = 21), Combination: Antibiotic + CK618 v.2 ([2]; 88-isolate panel): 76.2%; Host Range % on MDR Subset (n = 21), Single agent treatment ([2]; 88-isolate panel): 14.3%; Host Range % on MDR Subset (n = 21), Combination: Antibiotic + LBP-EC01 v.2 ([2]; 88-isolate panel, MDR subset): 76.2%; Host Range % on MDR Subset (n = 21), Single agent treatment [2, 3]: 14.3%; Host Range % on all Strains (n = 88), Combination: Antibiotic + LBP-EC01 v.2 ([2]; 88-isolate panel, all strains): 87.9%; Host Range % on all Strains (n = 88), Single agent treatment [2, 4]: 49.2%; Host Range % on Beta-lactam-Resistant Subset (n = 31), Combination: Antibiotic + LBP-EC01 v.2 [2, 5]: 81.7%; Host Range % on Beta-lactam-Resistant Subset (n = 31), Single agent treatment [2, 6]: 11.8%; Host Range % on all Strains (n = 88), Single agent treatment [2, 7]: 49.2%; Host Range % on all Strains (n = 88), Combination: Antibiotic + CK618 v.2 [2]: 87.9%

With `O=C1CN(/N=C/c2ccc([N+](=O)[O-])o2)C(=O)N1` [Nitrofurantoin] as the compound, how does the “Host Range % on Beta-lactam-Resistant Subset (n = 31), Combination: Antibiotic + CK618 v.2” value ([2]; 88-isolate panel) read?
The value was 97.8%.

What about the “Host Range % on Beta-lactam-Resistant Subset (n = 31), Single agent treatment” value (“Host Range % … (n = 31), Single agent treatment” below) ([2]; 88-isolate panel) of the same compound?
The value was 90.3%.

And the “Host Range % on MDR Subset (n = 21), Combination: Antibiotic + CK618 v.2” value ([2]; 88-isolate panel)?
The value was 98.4%.

What about the “Host Range % on MDR Subset (n = 21), Single agent treatment” value ([2]; 88-isolate panel) of the same compound?
The value was 85.7%.

And the “Host Range % on MDR Subset (n = 21), Combination: Antibiotic + LBP-EC01 v.2” value ([2]; 88-isolate panel, MDR subset)?
Its value is 98.4%.

What about the “Host Range % on MDR Subset (n = 21), Single agent treatment” value [2, 3] of the same compound?
The value was 85.7%.

And the “Host Range % on all Strains (n = 88), Combination: Antibiotic + LBP-EC01 v.2” value ([2]; 88-isolate panel, all strains)?
Its value is 93.9%.

What about the “Host Range % on all Strains (n = 88), Single agent treatment” value [2, 4] of the same compound?
Its value is 83.0%.

What about the “Host Range % on Beta-lactam-Resistant Subset (n = 31), Combination: Antibiotic + LBP-EC01 v.2” value [2, 5] of the same compound?
Its value is 97.8%.

What about the “Host Range % … (n = 31), Single agent treatment” value [2, 6] of the same compound?
The value was 90.3%.

What about the “Host Range % on all Strains (n = 88), Single agent treatment” value [2, 7] of the same compound?
Its value is 83.0%.

What about the “Host Range % on all Strains (n = 88), Combination: Antibiotic + CK618 v.2” value [2] of the same compound?
The value was 93.9%.

For `CO/N=C(\C(=O)N[C@@H]1C(=O)N2C(C(=O)O)=C(CSc3nc(=O)c(=O)[nH]n3C)CS[C@H]12)c1csc(N)n1` [Ceftriaxone], which “Host Range % on Beta-lactam-Resistant Subset (n = 31), Combination: Antibiotic + CK618 v.2” value ([2]; 88-isolate panel) is on record?
Its value is 81.7%.

And the “Host Range % … (n = 31), Single agent treatment” value ([2]; 88-isolate panel)?
Its value is 15.1%.

And the “Host Range % on MDR Subset (n = 21), Combination: Antibiotic + CK618 v.2” value ([2]; 88-isolate panel)?
The value was 77.8%.

What about the “Host Range % on MDR Subset (n = 21), Single agent treatment” value ([2]; 88-isolate panel) of the same compound?
Its value is 20.6%.

And the “Host Range % on MDR Subset (n = 21), Combination: Antibiotic + LBP-EC01 v.2” value ([2]; 88-isolate panel, MDR subset)?
The value was 77.8%.

And the “Host Range % on MDR Subset (n = 21), Single agent treatment” value [2, 3]?
The value was 20.6%.

And the “Host Range % on all Strains (n = 88), Combination: Antibiotic + LBP-EC01 v.2” value ([2]; 88-isolate panel, all strains)?
The value was 92.4%.

And the “Host Range % on all Strains (n = 88), Single agent treatment” value [2, 4]?
The value was 64.4%.

And the “Host Range % on Beta-lactam-Resistant Subset (n = 31), Combination: Antibiotic + LBP-EC01 v.2” value [2, 5]?
The value was 81.7%.

And the “Host Range % … (n = 31), Single agent treatment” value [2, 6]?
Its value is 15.1%.

What about the “Host Range % on all Strains (n = 88), Single agent treatment” value [2, 7] of the same compound?
The value was 64.4%.

What about the “Host Range % on all Strains (n = 88), Combination: Antibiotic + CK618 v.2” value [2] of the same compound?
The value was 92.4%.

For `C=CC1=C(C(=O)O)N2C(=O)[C@@H](NC(=O)/C(=N\O)c3csc(N)n3)[C@H]2SC1` [Cefdinir], which “Host Range % on Beta-lactam-Resistant Subset (n = 31), Combination: Antibiotic + CK618 v.2” value ([2]; 88-isolate panel) is on record?
Its value is 78.5%.

And the “Host Range % … (n = 31), Single agent treatment” value ([2]; 88-isolate panel)?
Its value is 12.9%.

What about the “Host Range % on MDR Subset (n = 21), Combination: Antibiotic + CK618 v.2” value ([2]; 88-isolate panel) of the same compound?
The value was 74.6%.

What about the “Host Range % on MDR Subset (n = 21), Single agent treatment” value ([2]; 88-isolate panel) of the same compound?
The value was 14.3%.

What about the “Host Range % on MDR Subset (n = 21), Combination: Antibiotic + LBP-EC01 v.2” value ([2]; 88-isolate panel, MDR subset) of the same compound?
Its value is 74.6%.

What about the “Host Range % on MDR Subset (n = 21), Single agent treatment” value [2, 3] of the same compound?
The value was 14.3%.

What about the “Host Range % on all Strains (n = 88), Combination: Antibiotic + LBP-EC01 v.2” value ([2]; 88-isolate panel, all strains) of the same compound?
The value was 87.5%.

What about the “Host Range % on all Strains (n = 88), Single agent treatment” value [2, 4] of the same compound?
Its value is 48.9%.

And the “Host Range % on Beta-lactam-Resistant Subset (n = 31), Combination: Antibiotic + LBP-EC01 v.2” value [2, 5]?
The value was 78.5%.

And the “Host Range % … (n = 31), Single agent treatment” value [2, 6]?
The value was 12.9%.

And the “Host Range % on all Strains (n = 88), Single agent treatment” value [2, 7]?
Its value is 48.9%.

What about the “Host Range % on all Strains (n = 88), Combination: Antibiotic + CK618 v.2” value [2] of the same compound?
The value was 87.5%.
